Measured values from US8658620B2, “Pharmaceutical composition, use of 2-iminopyrrolidine derivative for production of pharmaceutical composition, and kit for treatment or amelioration of heart diseases” (Eisai R&D Management Co., Ltd., priority 2008, dated 2014).
Where a name gives a salt, the structure may show the parent alone.

Tested on: guinea pig photosensitization-induced thrombus model
Experiment: guinea pig photosensitization-induced thrombus model (rose bengal / green light, femoral artery blood flow time)
Format: in vivo
Conditions: male Hartley guinea pigs, oral, about 115-120 min after administration, vehicle control 6.72 minutes
Description: At least one compound selected from the group consisting of the formulas (I) to (VII) or a pharmacologically acceptable salt thereof and at least one other compound (B) selected from group B are administered orally, single or in mixture, to male Hartley guinea pigs. As a vehicle, 0.5% methylcellulose solution or an aqueous solution containing dimethylsulfoxide and Tween 20 is used. (These compounds may be administered repeatedly.)
At a specific time after the oral administration, guinea pigs are anesthetized by intraperitoneal administration of sodium pentobarbital. Under anesthesia, the cervical vein is exposed and a polyethylene tube is cannulated thereinto for administering rose bengal. The femoral artery is exposed and fitted with a probe for blood flow measurement. A site upstream of the probe is irradiated with green light (wavelength 540 nm, 500,000 lux). […] Time to complete cessation of blood flow is measured.
A hydrobromide of a compound represented by the formula (I) (hereinafter, referred to as “the compound of Example 1”) and aspirin were dissolved with DMSO to give concentrations of 200 mg/mL and 1000 mg/mL, respectively. […] Blood flow time from the beginning of rose bengal administration to the complete cessation of blood flow was measured to evaluate antithrombotic effects.

Row | Compound | blood flow time from the beginning of rose bengal administration to the complete cessation of blood flow (compound of Example 1 alone 30 mg/kg) [min] | blood flow time from the beginning of rose bengal administration to the complete cessation of blood flow (aspirin alone 100 mg/kg) [min]
1 | CCOc1cc2c(c(F)c1OCC)C(=N)N(CC(=O)c1cc(N3CCOCC3)c(OC)c(C(C)(C)C)c1)C2 [Example 1, 1-(3-tert-Butyl-4-methoxy-5-morpholino-phenyl)-2-(5,6-diethoxy-7-fluoro-1-imino-1,3-dihydro-isoindol-2-yl)-ethanone; hydrobromide] | 10.77 | 
2 | CC(=O)Oc1ccccc1C(=O)O [aspirin] |  | 11.30
